The values that follow come from patent publication US8663645B2, “Use of native peptides and their optimized derivatives for vaccination” (Vaxon Biotech, priority 2005, dated 2014).

Values joined by “and” are separate entries in the source; they are usually repeats but may differ in a detail not shown here. Equal values may be shown once. No end group written: not given here.

For data set [1], the system named is RMAS/HHD cells pulsed with TERT988. The data set is described as follows: Avidity of CTL lines for native TERT988 (51Cr release). It is filed as cell-based, HHD mice. To be noted: TERT988Y primed spleen cells. As to the method:
(§1) HHD mice were injected subcutaneously with 100 μg of nonamer peptides emulsified in incomplete Freund's adjuvant (IFA) in the presence of 150 μg of the I-Ab restricted HBVcore128 T-helper epitope. Spleen cells (5×10^7 cells in 10 ml) from immunized HHD mice were stimulated in vitro with peptide (10 μM) in RPMI1640+10% FCS for five days. The CTL lines were established by weekly re-stimulation in vitro with irradiated spleen cells in the presence of peptide and 50 U/ml IL-2 (Proleukin, Chiron Corp., Emeryville, Calif.).
(§2) Murine RMAS/HHD cells were used as targets for cytotoxicity as described (Tourdot, Scardino et al. 2000). Briefly, 2.5×10^3 51Cr-labeled targets were pulsed with increasing doses (0.00001-10 μM) of peptides at 37° C. for 60 min. Effector cells in 100 μl were then added and incubated at 37° C. for 4 hours. After incubation, 100 μl of supernatant were collected and radioactivity was measured in a gamma counter. The specific lysis was determined as: Lysis=(Experimental Release−Spontaneous Release)/(Maximal Release−Spontaneous Release). CTL avidity is defined as the peptide concentration that gives half the maximal lysis. […] In Vivo Tumor Protection Assay
HHD mice were immunized with the optimized cryptic TERT988Y peptide. Eleven days later, spleen cells from vaccinated mice were pooled and in vitro serially stimulated with 10 μM of either TERT988Y or the native cryptic TERT988 peptides in the presence of 50 IU/ml of IL2. Stimulations were repeated every week. After the first, third and sixth in vitro stimulation, CTL lines were tested for their avidity for the native TERT988 peptide in a classical ^51Cr release cytotoxicity assay (Table 5).

The next data set concerns EL4/HHD tumor cells. The data set is described as follows: In vivo tumor protection assay. To be noted: for Survival post-challenge / Survival post-challenge (days): individual mice. Also on record: species or system HHD mice. On the procedure: HHD mice were vaccinated with 100 μg of peptide emulsified in IFA in the presence of 150 μg of the 1 Ab restricted HBVcore128 epitope once and then again two weeks later. One week after the second vaccination they were challenged subcutaneously with 2×10^4 EL4/HHD cells. Survival was recorded every two days.
HHD mice were vaccinated with the optimized cryptic TERT572Y and TERT988Y peptides and fifteen days later boosted with either the same optimized or the corresponding native cryptic peptide. Ten days after the boost, mice were challenged with EL4/HHD tumor cells and monitored for tumor growth and survival. Mice primed and boosted with the gp100154 peptide were used as negative controls (Table 8). 100% of control mice died by day 43 post-challenge.

Data set [2] can be described thus: Storage stability of vaccine peptides. Format: physicochemical. To be noted: more than two years of storage at −80° C. On the procedure:
The vaccine consisted of optimized TERT572Y (YLFFYRKSV) (SEQ ID NO:2) and native TERT572 (RLFFYRKSV) (SEQ ID NO:1) peptides emulsified in Montanide ISA51 (Seppic Inc, France). The vaccine peptides were synthesized at the Faculty of Pharmacy, University of Patras (Greece) by means of solid-phase Fmoc/Bu chemistry. Quality assurance studies included confirmation of identity, sterility and purity (>95% for both peptides). […] Each peptide was prepared as a lyophilized powder for reconstitution and dilution in sterile water.

Data set [3] has as its system RMAS/HHD cells pulsed with TERT572. The data set can be described thus: Avidity for TERT572 of CTL after in vivo prime and boost. As to conditions: individual HHD mice, 1st vaccination TERT572Y, 2nd vaccination the labelled peptide. On the procedure:
as §1, §2
HHD mice were vaccinated with the optimized cryptic TERT572Y peptide described above. Fifteen days later, they were boosted with either the same optimized or the native cryptic TERT572 peptide. […]

Data set [4] relates to patients treated with TERT540. To be noted: cited from earlier work.
The test system of data set [5] is RMAS/HHD cells pulsed with MAGE-A248D9. The data set is described as follows: Avidity of CTL lines for native MAGE-A248D9 (51Cr release). It is filed as cell-based, HHD mice. As to conditions: MAGE-A248V9 primed spleen cells. On the procedure:
as §1, §2
HHD mice were immunized with the optimized MAGE-A248V9 peptide, corresponding to the cryptic MAGE-A248D9 (both described in WO03083124). Eleven days later, spleen cells from vaccinated mice were pooled and in vitro serially stimulated with 100 μM of either MAGE-A248V9 or the native cryptic MAGE-A248D9 peptides in the presence of 50 IU/ml of IL2. Stimulations were repeated every week. After the first, third and sixth in vitro stimulation, CTL lines were tested for their avidity for the native MAGE-A248D9 peptide in a classical ^51Cr release cytotoxicity assay (Table 6).

A short description of data set [6]: Phase I clinical study: toxicity (NCI Common Toxicity Criteria). It is filed as in vivo, human. As to the method:
Patients received a total of six subcutaneous vaccinations administered every 3 weeks. Peptides in 0.5 ml aqueous solution were emulsified with 0.5 ml Montanide ISA51 immediately before being injected. The optimized TERT572Y peptide was used for the first 2 vaccinations and the native TERT572 peptide for the remaining 4 vaccinations. Five dose levels of the peptides were studied; dose levels included 2, 3, 4, 5 and 6 mg of both peptides. Three patients were entered at each dose level. An additional 3 patients were planned to be enrolled at the dose level where a dose-limiting event was observed. Each patient received the same peptide dose for all six vaccinations. No other treatment with possible antitumor activity, i.e., chemotherapy, radiotherapy, hormonal therapy or administration of corticosteroids, was allowed during the course of vaccination.
Before entering the study, all patients were assessed by complete medical history, physical examination, and complete blood cell count with differential, serum chemistry and baseline measurements of relevant tumor markers. Moreover, measurable disease was determined by standard imaging procedures (chest x-ray, ultrasound, computed tomography scans of thorax and abdomen, magnetic resonance imaging (MRI) if indicated, and whole body bone scans). Toxicity during the vaccination protocol was evaluated by repeating the complete blood cell count weekly and by performing medical history, physical examination and serum chemistry every three weeks before each subsequent injection during the vaccination period and every month thereafter during the follow up. Toxicity was assessed and scored using the National Cancer Institute (NCI) Common Toxicity Criteria (Ajani, Welch et al. 1990). Dose-limiting toxicity (DLT) was assessed during the entire vaccination protocol and was defined as the occurrence of any of the following: grade 4 hematologic toxicity; grade 3-4 neutropenia with fever>38.2° C.; grade 3-4 non-hematologic toxicity; and any treatment delay because of toxicity. Dose escalation was discontinued and the DLT dose level was reached if at least 50% of the patients treated at that level develop a DLT. The MTD dose level was defined as the first level below the DLT dose level.

Where [7] appears, read: 1 in vitro stimulation with the labelled peptide (10 μM).
The mark [8] stands for this setting: 3 in vitro stimulations with the labelled peptide.
Where [9] appears, read: 6 in vitro stimulations with the labelled peptide.
The mark [10] stands for this setting: prime TERT988Y, boost the labelled peptide.
The mark [11] stands for this setting: prime TERT572Y, boost the labelled peptide.
Where [12] appears, read: 1 in vitro stimulation with the labelled peptide.

Take DLQVNSLQTV (TERT-988) [TERT988]: the CTL line avidity is 170 nM in data set [1] (setting [7]), 70 nM in data set [1] (setting [8]) and 3 nM in data set [1] (setting [9]). For the same substance, the “Survival post-challenge” value in the data set with EL4/HHD tumor cells (setting [10]) was 39 days and 40 days and 41 days. In the data set with EL4/HHD tumor cells (setting [10]), the “Survival post-challenge (days)” value is listed as 200+ days.
“KTWGQYWQV [Gp100154, reference compound]”: the “Survival post-challenge” value with EL4/HHD tumor cells (prime Gp100154, boost the labelled peptide (negative control)) was 39 days (2×) and 43 days and 41 days (2×) and 40 days. Besides, the “control mice died by day 43 post-challenge” value with EL4/HHD tumor cells (primed and boosted with gp100154) was found to be 100%.
Consider “RLFFYRKSV (TERT-572) [TERT572, native cryptic peptide derived from TERT]”, for which, in data set [2], the “purity or concentration after storage” value is listed as “No decrease in purity or concentration”. For the same substance, the CTL avidity in data set [3] is 110 nM and 190 nM and 70 nM. Also, in the data set on EL4/HHD tumor cells (setting [11]), the “Survival post-challenge” value is 32 days and 35 days and 40 days; the “Survival post-challenge (days)” value was 200+ days.
Regarding “TERT540: dominant peptide TERT540 (hTERT:540-548), literature vaccine (ILAKFLHWL; UniProt O14746 540-548, looked up, fragment)”, in data set [4] (11 patients with renal cancer (Parkhurst, Riley et al. 2004)), the objective clinical response entry is recorded as “none of 11 patients”. In addition, in data set [4] (TERT540 emulsified in Monatanide (Parkhurst, Riley et al. 2004)), the “patients who responded to the vaccine” value is reported as 50%.
Regarding YLEYRQVPD (MAGE-A-248D9) [MAGE-A248D9], the CTL avidity in data set [5] (setting [12]) was found to be 200 nM; in data set [5] (setting [8]) it was 40 nM; in data set [5] (setting [9]) it was 0.8 nM.
For YLEYRQVPV (MAGE-A-248V9) [MAGE-A248V9], in that order: 400 nM, 450 nM and 320 nM.
In the case of YLFFYRKSV [TERT572Y, YLFFYRKSV], in data set [6] (TERT-expressing normal cells and tissues), the “hematologic, renal, gastrointestinal or hepatic toxicity” value was “no significant hematologic, renal, gastrointestinal or hepatic toxicity was observed”. The MTD dose level entry in data set [6] (dose levels 2-6 mg) is listed as “has not been reached”. Moreover, the “Dose-limiting toxicity (DLT)” value in data set [6] (dose levels 2-6 mg, entire study) is reported as “No DLT was observed”. Also, in data set [6] (even 24 months after the end of vaccination), the signs of autoimmunity entry is “none of the patients showed signs of autoimmunity”. Moreover, in data set [6] (individual patients), the “Toxicity Grade I” value was “no (6×) and Anemia, local skin, fatigue, and anorexia and Thrombo/penia, local skin and Local skin (5×) and thrombocytopenia and Anemia, local skin (3×) and Anemia and Local skin, anemia”; the “Toxicity Grade II” value was “fatigue, nausea and no (16×) and anorexia, fatigue, and nausea and anorexia, fatigue”; the “Toxicity Grade III/IV” value was “no”. The delayed toxicity result in data set [6] (monthly follow up after completing or discontinuing vaccination) is listed as “no signs or findings of delayed toxicity were observed”. Also, in data set [6] (of 19 patients), the “grade 11 anorexia” value is 2 patients, the “grade 11 fatigue” value stood at 3 patients, the “grade 11 nausea” value is given as 2 patients and the “grade I anemia” value turned out to be 6 patients. For the same substance, in data set [6] (of 19 patients), the “grade I anorexia” value is recorded as 1 patient, the “grade I fatigue” value is reported as 1 patient, the “grade I local skin reaction” value was determined as 11 patients and the “grade I thrombocytopenia” value is given as 2 patients. Further, in data set [6] (of 19 patients), the “patients who developed grade 11 toxicity” value is “Three” and the “patients who developed grade I toxicity” value is “Thirteen”.
Consider YLQVNSLQTV (TERT-988Y1) [TERT988Y], for which the CTL line avidity in data set [1] (setting [7]) is listed as 300 nM; in data set [1] (setting [8]) it was 500 nM; in data set [1] (setting [9]), 600 nM. The “Survival post-challenge” value in the data set on EL4/HHD tumor cells (setting [10]) was 40 days (3×) and 43 days (2×). Moreover, in the data set on EL4/HHD tumor cells (setting [10]), the “Survival post-challenge (days)” value is on record as 200+ days.
